We go through 13 molecules from patent US7569729B2, “Stable atomoxetine hydrochloride, a process for the preparation thereof, and an analytical control of its stability” (Teva Pharmaceutical Fine Chemicals S.R.L., priority 2005, dated 2009).

“And” between values parts separate entries of the source, which are not always exact repeats. Equal entries are not always repeated. Structures can show the parent of a compound that is named as a salt.

Series [1] is described as follows: Determination of pH of Atomoxetine Hydrochloride samples in aqueous solution. Format: physicochemical. As to conditions: for pH of 2% (w/V) aqueous solution / aqueous pH test results: Hydrochloride; for pH (2% in H2O): wet samples after filtration from crystallization medium; for aqueous pH test results: samples of the 40° C. stability test. On the procedure:
The present invention provides a method for analyzing Atomoxetine Hydrochloride stability, comprising determining the pH of a sample of Atomoxetine Hydrochloride in aqueous solution. The process comprises dissolving Atomoxetine Hydrochloride in water at a temperature of about 20° C. to about 30° C. to obtain a solution and measuring the pH. Preferably, the dissolution of Atomoxetine Hydrochloride is accelerated by using a sonication. Preferably, the pH is measured with a glass electrode.
A 2 g sample of Atomoxetine Hydrochloride is dissolved in 100 ml of deionized water at temperature between about 20° C. and about 30° C. with sonication if required to obtain a complete solution. The pH is measured with a glass electrode at temperature of between about 20° C. and about 30° C.

Series [2] can be described thus: Stressed thermal stability test (70° C. for 58 hours), impurities by HPLC. It is filed as physicochemical. An excerpt:
However, the presence of free HCl in Atomoxetine Hydrochloride, which is easily detected by a pH test of a solution of Atomoxetine Hydrochloride in water, results in significant degradation of the Atomoxetine Hydrochloride, as described below.

The nature of series [3]: Determination of pH of Atomoxetine Hydrochloride samples in aqueous solution. The settings on record: Example 2, after first water slurry and wash, 200 mg in 10 ml water. Format: physicochemical.
Series [4] can be described thus: Drying wet Atomoxetine Hydrochloride in a vacuum oven at 70° C., impurities by HPLC. Format: physicochemical. As to conditions: HPLC results, weight percent. An excerpt:
These experimental results are in agreement with the previously described stability data.

A short description of series [5]: Stability test (40° C., five days), impurities by HPLC. Format: physicochemical. How it is done: At lower temperatures, e.g., 40° C., the stability of Atomoxetine Hydrochloride samples, having a water solution pH test of less than 4 are compromised, while Atomoxetine Hydrochloride samples, having a water solution pH test of greater than 4, are stable.
Series [6] in a line: Stability test (40° C., 75% RH), impurities by HPLC. It is filed as physicochemical.
Series [7] is described as follows: Contact of dry Atomoxetine Hydrochloride with HCl gas flow at room temperature, impurities by HPLC.
The mark [8] stands for this setting: End of test time, Hydrochloride.
[9] abbreviates: After drying in vacuum oven at 70° C.
Setting [10] is: Before contact with HCl gas flow.
Where [11] appears, read: After contact with HCl gas flow, room temperature.

With `CNCCC(Oc1ccccc1C)c1ccccc1` (single isomer, unassigned) [Sample 1, Atomoxetine Hydrochloride], the “pH of 2% (w/V) aqueous solution” value in series [1] amounted to 2.4. Besides, in series [2] (setting [8]), the “Impurity (a) (HPLC A %)” value worked out at 10.5% HPLC A %, the “Impurity (b) (HPLC A %)” value is on record as 14.2% HPLC A % and the “Impurity (c) (HPLC A %)” value came out at 26.2% HPLC A %. In addition, in series [2] (Time zero), the “Impurity (a) (HPLC A %)” value is given as “not detected”, the “Impurity (b) (HPLC A %)” value was “not detected” and the “Impurity (c) (HPLC A %)” value is reported as “not detected”.

Turning to `CNCCC(Oc1ccccc1C)c1ccccc1` (single isomer, unassigned) [Sample 2, Atomoxetine Hydrochloride], the “pH of 2% (w/V) aqueous solution” value in series [1] was found to be 5.8. For the same molecule, in series [2] (setting [8]), the “Impurity (a) (HPLC A %)” value is listed as “not detected”, the “Impurity (b) (HPLC A %)” value is given as “not detected” and the “Impurity (c) (HPLC A %)” value is “not detected”. In series [2] (Time zero), the “Impurity (a) (HPLC A %)” value was “not detected”, the “Impurity (b) (HPLC A %)” value is reported as “not detected” and the “Impurity (c) (HPLC A %)” value is “not detected”.

`CNCCC(Oc1ccccc1C)c1ccccc1` (single isomer, unassigned) [Sample 3, Atomoxetine Hydrochloride]: the “pH of 2% (w/V) aqueous solution” value in series [1] is on record as 6.0. In series [2] (setting [8]), the “Impurity (a) (HPLC A %)” value was “not detected”, the “Impurity (b) (HPLC A %)” value is reported as “not detected” and the “Impurity (c) (HPLC A %)” value was “not detected”. In series [2] (Time zero), the “Impurity (a) (HPLC A %)” value is recorded as “not detected”, the “Impurity (b) (HPLC A %)” value is “not detected” and the “Impurity (c) (HPLC A %)” value is listed as “not detected”.

For the molecule `CNCCC(Oc1ccccc1C)c1ccccc1` (single isomer, unassigned) [Sample 4, Atomoxetine Hydrochloride], in series [1], the “pH of 2% (w/V) aqueous solution” value is on record as 5.9. In addition, in series [2] (setting [8]), the “Impurity (a) (HPLC A %)” value is recorded as “not detected”, the “Impurity (b) (HPLC A %)” value is listed as “not detected” and the “Impurity (c) (HPLC A %)” value is “not detected”. Moreover, in series [2] (Time zero), the “Impurity (a) (HPLC A %)” value was “not detected”, the “Impurity (b) (HPLC A %)” value is reported as “not detected” and the “Impurity (c) (HPLC A %)” value is “not detected”.

For the molecule `CNCC[C@@H](Oc1ccccc1C)c1ccccc1` [Atomoxetine Hydrochloride, (R)(−)-n-methyl-3-(2-methylphenoxy)-3-phenylpropylamine], the pH in series [1] (Example 1, wet solids of two separate preparations, 2 g in 100 ml water) was 2.39 and 2.40; in series [1] (Example 2, after second water slurry and wash, wet, 2 g in 100 ml water), 5.9; in series [1] (Example 3, after acetone washing and drying, about 2 percent w/V in water), 4.6; in series [3], 4.4.

As to `CNCCC(Oc1ccccc1C)c1ccccc1` (stereo not shown) [Sample 5, Atomoxetine Hydrochloride], in series [1], the “pH (2% in H2O)” value is listed as 2.4. Besides, in series [4] (setting [9]), the “Impurity (a)” value was found to be 0.31%, the “Impurity (b)” value is 0.04% and the “Impurity (c)” value is on record as 0.12%. In addition, in series [4] (Before drying), the “Impurity (a)” value is reported as “not detected”, the “Impurity (b)” value is given as “not detected” and the “Impurity (c)” value was “not detected”.

For the molecule `CNCCC(Oc1ccccc1C)c1ccccc1` (stereo not shown) [Sample 6, Atomoxetine Hydrochloride], the “pH (2% in H2O)” value in series [1] turned out to be 2.4.

As to `CNCCC(Oc1ccccc1C)c1ccccc1` (stereo not shown) [Sample 7, Atomoxetine Hydrochloride], the “aqueous pH test results” value in series [1] was 2.4. For the same molecule, in series [5] (setting [8]), the “Impurity (a) (HPLC A %)” value is given as 0.633% HPLC A %, the “Impurity (b) (HPLC A %)” value amounted to 0.0482% HPLC A % and the “Impurity (c) (HPLC A %)” value came out at 0.689% HPLC A %. Besides, in series [5] (Time zero), the “Impurity (b) (HPLC A %)” value is listed as “not detected”. Moreover, in series [5] (Time zero, Hydrochloride), the “Impurity (a) (HPLC A %)” value was 0.014% HPLC A % and the “Impurity (c) (HPLC A %)” value is 0.018% HPLC A %.

`CNCCC(Oc1ccccc1C)c1ccccc1` (stereo not shown) [Sample 8, Atomoxetine Hydrochloride]: in series [1], the “aqueous pH test results” value came out at 4.4. Further, the “Impurity (a) (HPLC A %)” value is “not detected” in series [5] (setting [8]) and “not detected” in series [5] (Time zero, Hydrochloride). Besides, the “Impurity (b) (HPLC A %)” value in series [5] (setting [8]) and in series [5] (Time zero) was “not detected” in each case. Moreover, the “Impurity (c) (HPLC A %)” value in series [5] (setting [8]) is “not detected”; in series [5] (Time zero, Hydrochloride), “not detected”.

For the molecule `CNCCC(Oc1ccccc1C)c1ccccc1` (stereo not shown) [Sample 9, Atomoxetine Hydrochloride], the “aqueous pH test results” value in series [1] came to 4.8. In series [5] (setting [8]), the “Impurity (a) (HPLC A %)” value was “not detected”, the “Impurity (b) (HPLC A %)” value was “not detected” and the “Impurity (c) (HPLC A %)” value is “not detected”. Also, the “Impurity (b) (HPLC A %)” value in series [5] (Time zero) was “not detected”. In addition, in series [5] (Time zero, Hydrochloride), the “Impurity (a) (HPLC A %)” value is reported as “not detected” and the “Impurity (c) (HPLC A %)” value is recorded as “not detected”.

On to `CNCCC(Oc1ccccc1C)c1ccccc1` (stereo not shown) [Sample 10, Atomoxetine Hydrochloride], for which, in series [1], the “aqueous pH test results” value came out at 6.1. Also, the “Impurity (a) (HPLC A %)” value was “not detected” in series [5] (setting [8]) and “not detected” in series [5] (Time zero, Hydrochloride). The “Impurity (b) (HPLC A %)” value in series [5] (setting [8]) and in series [5] (Time zero) was “not detected” each time. The “Impurity (c) (HPLC A %)” value in series [5] (setting [8]) is given as “not detected”; in series [5] (Time zero, Hydrochloride), “not detected”.

On to `CNCCC(Oc1ccccc1C)c1ccccc1` (stereo not shown) [Sample 11, Atomoxetine Hydrochloride], for which the “Impurity (a) (HPLC A %)” value in series [6] (1 month) was found to be 0.02 HPLC A %; in series [6] (2 months), 0.02 HPLC A %; in series [6] (3 months), 0.02 HPLC A %; in series [6] (6 month), 0.01 HPLC A %; in series [6] (Time zero), 0.01 HPLC A %. In addition, the “Impurity (b) (HPLC A %)” value in series [6] (1 month) is listed as 0.006 HPLC A %; in series [6] (2 months), 0.007 HPLC A %; in series [6] (3 months), 0.003 HPLC A %; in series [6] (6 month) it was “not detected”; in series [6] (Time zero), “not detected”. The “Impurity (c) (HPLC A %)” value in series [6] (1 month), in series [6] (2 months), in series [6] (3 months), in series [6] (6 month) and in series [6] (Time zero) was “not detected” throughout.

In the case of `CNCCC(Oc1ccccc1C)c1ccccc1` (stereo not shown) [Sample 12, Atomoxetine Hydrochloride], the “aqueous pH test result” value in series [1] (setting [10]) is 6.1; in series [1] (after contact with HCl gas flow), 2.8. Besides, the “Impurity (a)” value in series [7] (setting [11]) is 0.10% HPLC A %; in series [7] (setting [10]) it was “not detected”. In addition, the “Impurity (b)” value was 0.032% HPLC A % in series [7] (setting [11]) and “not detected” in series [7] (setting [10]). Further, the “Impurity (c)” value in series [7] (setting [11]) was 1.54% HPLC A %; in series [7] (setting [10]) it was “not detected”.
